Test results reported in patent publication US20230037862A1, “SYNTHETIC AGONISTS OF TLR4 RECEPTOR” (UNIVERSITÀ DEGLO STUDI DI MILANO - BICOCCA, priority 2017, published 2023).

How the values were obtained:
HEK-Blue™ hTLR4 cells = assay: MTT cell viability assay; format: cell-based; conditions: 25 and 50 μM, 16-18 hours
Experimental: HEK-Blue™ hTLR4 cells were treated with the higher concentrations used in the preceding assays and incubated for 16-18 hours. Results were normalized to PBS addition and are expressed as mean of percentage ±ES. of at least three independent experiments.
Finally, compound FP11 cytotoxicity was assessed by MTT (3-(4,5-dimethylthiazol-2-yl)-2,5-diphenyltetrazolium bromide) viability assay. HEK-Blue™ hTLR4 cells were treated with the highest compound concentrations used in the preceding assay (25 and 50 μM).
HEK-Blue™ hTLR4 cells were grown in DMEM supplemented with 10% FBS, 2 mM glutamine and antibiotics.
Cells were seeded in 100 μL of DMEM without Phenol Red at a density of 4×10^4 cells per well and incubated overnight (37° C., 5% CO2 , 95% humidity).
Cells were treated with the higher dose of compound used in the previous experiments and incubated overnight. MTT solution (5 mg/mL in PBS) was added to each well, and after 3 h incubation, 0.1 N HCl in 2-propanol solution was used to dissolve formazan crystals.
Formazan concentration was determined by measuring the absorbance at 570 nm.
The results were normalized with untreated control (PBS) and expressed as the mean of percentage ±SEM of three independent experiments.

[1] = biological target: T1, purified human MD-2 receptor (Homo sapiens, UniProt Q9Y6Y9); assay: Surface plasmon resonance binding to MD-2
T1 sequence (Q9Y6Y9 19-160): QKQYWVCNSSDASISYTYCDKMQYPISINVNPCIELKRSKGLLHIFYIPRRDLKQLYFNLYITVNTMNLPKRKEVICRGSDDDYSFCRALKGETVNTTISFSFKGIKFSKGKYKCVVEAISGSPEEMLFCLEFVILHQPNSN
Experimental: Surface plasmon resonance (SPR) experiments enable the study of direct interactions between the molecules to be characterized and MD-2.
The binding affinity of the compounds to recombinant MD-2 was determined using a Biacore X100 with an NTA sensor chip (Biacore, GE Healthcare, Uppsala, Sweden). Briefly, 0.5 μM MD-2 (in 50 mM TRIS, 150 mM NaCl, 0.5% Tween 20, pH 7.5) was immobilized onto the sensor chip previously activated with 1 min pulse of 10 mM NiSO4. The first flow cell was used as a reference surface to control nonspecific binding.
Both flow cells were incubated with the analyte (in PBS, 5% DMSO, 5% EtOH, pH 7.5) at a flow rate of 10 μL/min at 25° C. at increasing concentrations. The data were analyzed with Biacore Evaluation software. KD values were calculated by global fitting of the equilibrium binding responses from various concentrations of analytes using a 1:1 Langmuir binding model.

[2] = biological target: T1, purified human MD-2 receptor; assay: Anti-MD-2 antibody (9B4) competition, antibody-sandwich ELISA; format: binding
Experimental: The direct binding of molecules FP11 and FP111 to MD-2 was analyzed by using a monoclonal antibody binding MD-2, but not LPS-bound MD-2 (Viriyakosol, S., et al., Characterization of monoclonal antibodies to human soluble MD-2 protein. Hybridoma (Larchmt), 2006. 25(6): p. 349-57).
Anti-MD-2 monoclonal antibody (9B4) specifically binds an epitope near the MD-2 hydrophobic pocket, which is available for 9B4 antibody binding only when the MD-2 hydrophobic pocket is empty. Compound FP11 is accountable for a decrease of 9B4 antibody binding to MD-2 equal to 95% at a concentration of 20 μM (FIG. 3E).
The method of antibody-sandwich ELISA for the detection of the binding of compounds to MD-2 was modified from a previous study.
A microtiter plate was coated overnight at 4° C. with 100 μL/well of 5 μg/mL of chicken polyclonal anti-MD-2 antibodies, diluted in 50 mM Na2CO3 buffer, pH 9.6, and blocked with 1% BSA in PBS. After washing, 1 μM MD-2 with tested compounds was added and incubated for 2 h.
Mouse anti-MD-2 mAb (0.1 μg/mL 9B4) and goat antimouse IgG conjugated with HRP (0.1 μg/mL) in PBS were added, followed by detection at 420 nm after the addition of 100 μL of ABTS (Sigma).
Chicken anti-MD-2 polyclonal antibodies were prepared against recombinant MD-2 by GenTel (Madison, Wis., USA), monoclonal mouse anti-MD-9B4 antibodies were from eBioscience (San Diego, Calif., USA), and secondary goat antimouse IgG conjugated with horseradish peroxidase was from Santa Cruz Biotechnology (Santa Cruz, Calif., USA).

CCCCCCCCCCCCCC(=O)NC1C(OC(=O)CCCCCCCCCCCCC)[C@H](OC(=O)CCCCCCCCCCCCC)C(CO)O[C@H]1OP(=O)(O)O (stereo partly drawn) [FP11, 1-O-Phosphoryl-2-deoxy-4-O-tetradecanoyl 3-O-tetradecanoyl-2-tetradecanoylamino-α-D-glucopiranoside]
cytotoxicity (MTT viability) (HEK-Blue™ hTLR4 cells): not toxic at the concentrations assayed | direct binding to MD-2 (SPR) [1]: directly binds the MD-2 hydrophobic pocket | Kd ([1]; SPR, 1:1 Langmuir binding model, 25° C.): 6.5 µM | decrease of 9B4 antibody binding to MD-2 ([2]; 20 μM): 95% | prevention of monoclonal antibody 9B4 binding to MD-2 ([2]; up to 20 μM): prevents the binding of monoclonal antibody to MD-2 in a dose-dependent manner
